Measurements taken from article PMC10449633 (Nature Chemical Biology, 2023).
Several values for one entry are separate records, joined by “and”; a condition that tells them apart may be missing. Equal values may be shown once. Read-outs that look alike come from different tables or passages of the source. Numbered stars: 1 amine (or outer) side, 2 acyl side, 3 side chain; on linkers, the order of the positions; unused ones are H or OH. Square brackets hold non-standard residues; d marks the D form. Peptide text beside a SMILES is read from it. ξ: configuration not given here. X1 = CN(C(Cc1cn(Cc2ccc(Br)cc2)c2ccccc12)C(=O)[*:2])[*:1]; ξAla(CF3) = NC(CC(F)(F)F)C(=O)O; X2 = N#CCCC(O[*:1])C(=O)[*:2]; NMeL = CN[CH](CC(C)C)C(=O)O; NMeA = CN[CH](C)C(=O)O

Experiments:
SARS-CoV-2 [1] = format: cell-based; settings: for infectious virus particle production: 48 h
SARS-CoV-2 [2] = format: cell-based; settings: 48 h
Vero E6 cells = settings: Mock infected 48 h
[3] = system: T-cell acute lymphoblastic leukemia cells; settings: in vitro; cited from earlier work
Sec61α S82P = Sec61α S82P (Canis lupus familiaris, UniProt P38377, S82P); assay: Luciferase reporter assay in HEK293 cells expressing Sec61α S82P; set-up: remaining activity: dose or concentration left out as unconfirmed; settings: HEK293, 24 h, read-out: luciferase reporter activity (% of no-drug control), S82P
Sec61α S82P, sequence (P60468 whole entry): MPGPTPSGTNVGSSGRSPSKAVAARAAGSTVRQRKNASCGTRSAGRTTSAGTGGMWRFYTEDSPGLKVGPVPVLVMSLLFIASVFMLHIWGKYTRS
Sec61α S82P, sequence (P38377 whole entry S82P): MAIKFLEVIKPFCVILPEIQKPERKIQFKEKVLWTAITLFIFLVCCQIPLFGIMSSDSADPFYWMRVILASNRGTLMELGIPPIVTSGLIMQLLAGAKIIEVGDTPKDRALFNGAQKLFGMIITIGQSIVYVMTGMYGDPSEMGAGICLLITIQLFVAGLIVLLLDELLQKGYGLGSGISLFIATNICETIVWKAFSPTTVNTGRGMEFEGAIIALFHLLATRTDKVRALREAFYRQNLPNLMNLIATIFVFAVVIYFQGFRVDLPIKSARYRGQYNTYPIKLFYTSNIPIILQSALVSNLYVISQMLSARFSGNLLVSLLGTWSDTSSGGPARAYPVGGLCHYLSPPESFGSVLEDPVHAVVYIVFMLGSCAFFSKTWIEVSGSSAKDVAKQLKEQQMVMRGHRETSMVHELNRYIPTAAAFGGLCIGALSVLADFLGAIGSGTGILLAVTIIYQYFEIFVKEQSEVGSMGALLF
Sec61α S82P, sequence (P60059 whole entry, further chain): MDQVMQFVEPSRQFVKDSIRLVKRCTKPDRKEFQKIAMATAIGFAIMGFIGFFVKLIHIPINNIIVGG
Protocol: (§1) Data are mean values ± s.d. from n = 2 independent experiments.
(§2) HEK293T cells (0.3 × 10^6) were seeded per well of a six-well plate and incubated at 37 °C in 5% CO2 for 24 h to adhere. Each of the two wells was transfected with 1 µg of plasmid encoding a luciferase with the signal peptide of either VCAM1 or pPL using PEI in a 5:1 ratio, after which cells were returned to the incubator for a further 24 h. Transfected cells were then resuspended following trypsinization, cell count estimated using a TC20 Automated Cell Counter (BioRad) and diluted to seed a 96-well flat-bottom plate with 1.6 × 10^4 cells per well. […] Cells were then incubated for a further 24 h, after which the luciferase-containing media were transferred to a clean 96-well plate and stored at −20 °C. Luciferase activity of the media was estimated using a Gaussia-GLOW Juice Luciferase Assay kit from PJK Biotech GmbH as per the manufacturer’s instructions. Luminescence was measured using an EnSpire Multimode plate reader (PerkinElmer). Background luminescence from media placed in a well with neither cells nor drug was subtracted from all values, and measurements were calculated as a percentage of luminescence intensity of a well expressing the appropriate luciferase construct in the absence of any drug. Curves were fitted, and IC50 values were calculated using GraphPad Prism 8.
(§3) HEK293 Flp-In T-REx cells (Thermo Fisher Scientific, R78007) were cultured in Dulbecco’s modified Eagle’s medium (Gibco) supplemented with 10% FBS (Gibco) at 37 °C in a humidified 5% CO2 atmosphere. Approximately 0.3 µg of pOG44 and 1 µg of targeting construct plasmids were mixed in 250 µl of OptiMEM (Thermo Fisher Scientific, 51985-026). A total of 3 µl (3 µg) Lipofectamine3000 transfection reagent was then added to the DNA mix and incubated at room temperature for 20 min, and the whole mixture was added to the cells. Cells were exposed to 100 µg ml^−^1 hygromycin B (Invitrogen) and 10 µg ml^−^1 blasticidin for 3–4 weeks until the appearance of resistant colonies. Colonies were expanded into T75 flasks and induced with doxycycline (Sigma-Aldrich, D9891) at a concentration of 1–5 µg ml^−^1 for 48 h. Cells were collected, and total RNA was extracted followed by cDNA amplification and sequencing of Sec61 with gene-specific PCR primers to confirm. Cells were then used for the luciferase reporter assays as above.
(§4) Data are mean values ± SD and are representative of n = 2 independent experiments.

Sec61α T86M = Sec61α T86M (Canis lupus familiaris, UniProt P38377, T86M); assay: Luciferase reporter assay in HEK293 cells expressing Sec61α T86M; settings: HEK293, 24 h, read-out: luciferase reporter activity (% of no-drug control), T86M
Sec61α T86M, sequence (P60468 whole entry): as the sequence (P60468 whole entry) above
Sec61α T86M, sequence (P38377 whole entry T86M): as the sequence (P38377 whole entry S82P) above, with P82S, T86M counted along it
Sec61α T86M, sequence (P60059 whole entry, further chain): as the sequence (P60059 whole entry, further chain) above
Protocol: as §1, §2, §3, §4

Sec61α N300M = Sec61α N300M (Canis lupus familiaris, UniProt P38377, N300M); assay: Luciferase reporter assay in HEK293 cells expressing Sec61α N300M; settings: HEK293, 24 h, read-out: luciferase reporter activity (% of no-drug control), N300M
Sec61α N300M, sequence (P38377 whole entry N300M): as the sequence (P38377 whole entry S82P) above, with P82S, N300M counted along it
Sec61α N300M, sequence (P60468 whole entry, further chain): as the sequence (P60468 whole entry) above
Sec61α N300M, sequence (P60059 whole entry, further chain): as the sequence (P60059 whole entry, further chain) above
Protocol: as §1, §2, §3, §4

Sec61α S305A = Sec61α S305A (Canis lupus familiaris, UniProt P38377, S305A); assay: Luciferase reporter assay in HEK293 cells expressing Sec61α S305A; set-up: remaining activity: dose or concentration left out as unconfirmed; settings: HEK293, 24 h, read-out: luciferase reporter activity (% of no-drug control), S305A
Sec61α S305A, sequence (P38377 whole entry S305A): as the sequence (P38377 whole entry S82P) above, with P82S, S305A counted along it
Sec61α S305A, sequence (P60059 whole entry, further chain): as the sequence (P60059 whole entry, further chain) above
Sec61α S305A, sequence (P60468 whole entry, further chain): as the sequence (P60468 whole entry) above
Protocol: as §1, §2, §3, §4

With `CC(C)CC1NC(=O)C(Cc2cn(Cc3ccc(Br)cc3)c3ccccc23)N(C)C(=O)C(CC(F)(F)F)NC(=O)C(CC(C)C)N(C)C(=O)C(CC(F)(F)F)NC(=O)C(CCC#N)OC(=O)C(C)N(C)C1=O` (centres unmarked) [KZR-8445] (cyclo([X1]L[NMeA][X2][ξAla(CF3)][NMeL][ξAla(CF3)]); configuration not given here) the “infectious virus particle production” value (SARS-CoV-2 [1]; 0.01 uM) was 2000000 TCID50 per milliliter and 1175555 TCID50 per milliliter, the “infectious virus particle production” value (SARS-CoV-2 [1]; 10 uM) was 928.318 TCID50 per milliliter and 632.456 TCID50 per milliliter and the CoV-2 replication (SARS-CoV-2 [1]; Vero cells) was “blocked”. The “viral genome copy number” value (SARS-CoV-2 [2]; 0.01 uM) was 25500000 and 22400000 and 23500000, the “viral genome copy number” value (SARS-CoV-2 [2]; 0.04 uM) was 23500000 and 23900000 and 21400000 and the “viral genome copy number” value (SARS-CoV-2 [2]; 0.12 uM) was 29500000 and 28600000 and 23600000. The “viral genome copy number” value (SARS-CoV-2 [2]; 0.37 uM) was 48700000 and 30700000 and 26200000, the “viral genome copy number” value (SARS-CoV-2 [2]; 1.11 uM) was 22100000 and 25700000 and 28600000 and the “viral genome copy number” value (SARS-CoV-2 [2]; 3.33 uM) was 11600000 and 10500000 and 12800000. The “viral genome copy number” value (SARS-CoV-2 [2]; 10 uM) was 8080000 and 9090000 and 8060000, the cell viability (Vero E6 cells; 0.01 uM) was 91.0268 and 102.167 and 114.581 and the cell viability (Vero E6 cells; 0.04 uM) was 90.9801 and 99.0668 and 98.0954. For the same compound, the cell viability (Vero E6 cells; 0.12 uM) was 93.1234 and 96.6644 and 96.0334, the cell viability (Vero E6 cells; 0.37 uM) was 79.1404 and 83.8559 and 91.7442 and the cell viability (Vero E6 cells; 1.11 uM) was 83.2343 and 88.2826 and 88.422. For the same compound, the cell viability (Vero E6 cells; 3.33 uM) was 85.0888 and 89.2631 and 88.8876, the cell viability (Vero E6 cells; 10 uM) was 76.0738 and 86.0259 and 84.7152 and the “dexamethasone resistance in T-ALL cells” value [3] was “overcome dexamethasone resistance”. For the same compound, the remaining activity at 0.00018303 µM (Sec61α S82P; Drug nM (log10) 0.18303) was 99%, the remaining activity at 0.000660151 µM (Sec61α S82P; Drug nM (log10) 0.660151) was 80.3% and the remaining activity at 0.00113727 µM (Sec61α S82P; Drug nM (log10) 1.13727) was 73.5%. The remaining activity (Sec61α S82P; Drug nM (log10) 1.61439) was 47.5%, the remaining activity (Sec61α S82P; Drug nM (log10) 2.09151) was 22.4% and the remaining activity (Sec61α S82P; Drug nM (log10) 2.56864) was 10.1%. The remaining activity (Sec61α S82P; Drug nM (log10) 3.04576) was 4.21%, the remaining activity (Sec61α S82P; Drug nM (log10) 3.52288) was 2.82% and the remaining activity at 0.004 µM (Sec61α S82P; Drug nM (log10) 4) was 3.25%. The remaining activity at 0.00050805 µM (Sec61α S82P; Drug nM (log10) -0.29409) was 102%, the remaining activity at 0.00018303 µM (Sec61α T86M; Drug nM (log10) 0.18303) was 84.6% and the remaining activity at 0.000660151 µM (Sec61α T86M; Drug nM (log10) 0.660151) was 76%. The remaining activity at 0.00113727 µM (Sec61α T86M; Drug nM (log10) 1.13727) was 53.5%, the remaining activity (Sec61α T86M; Drug nM (log10) 1.61439) was 28.5% and the remaining activity (Sec61α T86M; Drug nM (log10) 2.09151) was 12.1%. It also gave a remaining activity (Sec61α T86M; Drug nM (log10) 2.56864) of 5.08%, a remaining activity (Sec61α T86M; Drug nM (log10) 3.04576) of 2.62% and a remaining activity (Sec61α T86M; Drug nM (log10) 3.52288) of 2.32%. It also gave a remaining activity at 0.004 µM (Sec61α T86M; Drug nM (log10) 4) of 2.59%, a remaining activity at 0.00018303 µM (Sec61α N300M; Drug nM (log10) 0.18303) of 96.7% and a remaining activity at 0.000660151 µM (Sec61α N300M; Drug nM (log10) 0.660151) of 105%. The remaining activity (Sec61α N300M; Drug nM (log10) 1.61439) was 76.6%, the remaining activity (Sec61α N300M; Drug nM (log10) 2.09151) was 74% and the remaining activity (Sec61α N300M; Drug nM (log10) 3.04576) was 68%. For the same compound, the remaining activity at 0.000508 µM (Sec61α N300M; Drug nM (log10) -0.29409) was 92.5%, the remaining activity at 0.00018303 µM (Sec61α S305A; Drug nM (log10) 0.18303) was 82.1% and the remaining activity at 0.000660151 µM (Sec61α S305A; Drug nM (log10) 0.660151) was 68.1%. For the same compound, the remaining activity at 0.00113727 µM (Sec61α S305A; Drug nM (log10) 1.13727) was 47.4%, the remaining activity (Sec61α S305A; Drug nM (log10) 1.61439) was 27.2% and the remaining activity (Sec61α S305A; Drug nM (log10) 2.09151) was 13%. It also gave a remaining activity (Sec61α S305A; Drug nM (log10) 2.56864) of 5.54%, a remaining activity (Sec61α S305A; Drug nM (log10) 3.04576) of 3.19% and a remaining activity (Sec61α S305A; Drug nM (log10) 3.52288) of 2.55%. The remaining activity at 0.004 µM (Sec61α S305A; Drug nM (log10) 4) was 3.24% and the remaining activity at 0.00050805 µM (Sec61α S305A; Drug nM (log10) -0.29409) was 89.3%.
